From patent publication US7442841B2, “Extraction process” (Invista North America S.A R.L., priority 2006, dated 2008)

Columns and labels:
[1] = Liquid-liquid separation of cyclohexanol from cyclohexane, distribution coefficient by gas chromatography; format: physicochemical; settings: for Cyclohexanol D (distribution coefficient): concentration in extracting solvent phase divided by concentration in cyclohexane phase, 1 mL stock solution + 1 mL extracting solvent; for Cyclohexanol Log D: extracting solvent/cyclohexane, equal volumes
Method: The distribution coefficient for the separation was then calculated.

[2] = Liquid-liquid separation of cyclohexanone from cyclohexane, distribution coefficient by gas chromatography; settings: for Cyclohexanone D (distribution coefficient): concentration in extracting solvent phase divided by concentration in cyclohexane phase, 1 mL stock solution + 1 mL extracting solvent; for Cyclohexanone Log D: extracting solvent/cyclohexane, equal volumes
Method: As used herein, the term “distribution coefficient” referring to the liquid-liquid separation refers to the concentration of the separable component in the ionic liquid-based phase divided by the concentration of the separable component in the non-polar solvent-based phase. These concentrations are measured subsequent to settling, i.e. when the separation mixture has reached equilibrium subsequent to the vigorous shaking.
The general method used for all the examples was as follows.
Stock solution; 250 mg cyclohexanol (Molecular Weight=100 gmol^−1) and 250 mg cyclohexanone (Molecular Weight=98 gmol^−1) in 10 g of cyclohexane (Molecular Weight=84 gmol^−1).
Method: add 1 mL (0.8 g) of stock solution (20 mg each of cyclohexanol and cyclohexanone) to 1 mL of ionic liquid and shake vigorously. After settling time and complete phase separation, 3 drops of the top layer were added to a vial and filled with ethylene chloride. Gas chromatography analysis was used to provide the number of moles of the separable component in each liquid phase. The distribution coefficient for the separation was then calculated.

[3] = Extraction of octanol from octane, IL/Octane distribution coefficient; format: physicochemical; settings: concentration of substrate in IL divided by concentration in octane
Method: (§1) A corresponding set of experiments was conducted to study the extraction of octanol and 2-octanone from octane using ionic liquids. The results are presented in Table 2 below, in which the IL/Octane distribution coefficient is calculated as the concentration of substrate in IL divided by the concentration of substrate in octane.

[4] = Extraction of 2-octanone from octane, IL/Octane distribution coefficient; format: physicochemical; settings: concentration of substrate in IL divided by concentration in octane
Method: as §1

| Compound | Cyclohexanol D (distribution coefficient) [1] | Cyclohexanol Log D [1] | Cyclohexanone D (distribution coefficient) [2] | Cyclohexanone Log D [2] | IL/Octane distribution coefficient Octanol [3] | IL/Octane distribution coefficient 2-Octanone [4] |
| --- | --- | --- | --- | --- | --- | --- |
| C[S+](C)[O-] [Example 14, dimethyl sulfoxide, reference compound] | 24.79 | 1.39 | 2.80 | 0.45 | – | – |
| C[S+](C)[O-] [Example 19, dimethyl sulfoxide, reference compound] | – | – | – | – | 7.67 | 0.89 |
| C[N+]1(CCCCS(=O)(=O)O)CCCC1 [Example 8] | 5.96 | 0.78 | 0.21 | – | – | – |
| O [Example 1, H2O, reference compound] | 0.86 | −0.07 | 0.34 | −0.47 | – | – |
| CCCC[n+]1ccn(C)c1 [Example 3] | 1.77 | – | 2.11 | – | – | – |
| CC[n+]1ccccc1 [Example 2] | 1.60 | 0.20 | 3.40 | – | – | – |
| CCCCn1cc[n+](C)c1 [Example 6] | 4.10 | – | 4.38 | – | – | – |
| C[N+](C)(C)CCO [Example 5] | 2.91 | 0.46 | 3.00 | 0.478 | – | – |
| CCCCn1cc[n+](C)c1 [Example 4] | 2.32 | – | 1.51 | – | – | – |
| CCCC[N+]1(C)CCCC1 [Example 7] | 5.12 | 0.71 | 5.00 | – | – | – |
| Br.CCCC[n+]1ccn(C)c1 [Example 17] | – | – | – | – | 1.44 | 0.16 |
| CCCCn1cc[n+](C)c1 [Example 15] | – | – | – | – | 1.06 | 2.08 |
